Data on 19 compounds can be found in the supplement of paper PMC8967900.
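Further: ALL cell lines in 384-well plates, five doses spanning 10,000-fold, each plate scaled between vehicle and 100 µmol/L benzalkonium chloride controls, sDSS an adapted area-under-curve metric.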

The subject of the first experiment is KARPAS-45. As to the kind of experiment: selective drug sensitivity score (sDSS, relative to normal bone marrow) (sDSS (score)); higher = more potent and effective on the cell line relative to normal bone marrow cells. The settings on record: 72 h.
`Cc1nc(Nc2ncc(C(=O)Nc3c(C)cccc3Cl)s2)cc(N2CCN(CCO)CC2)n1` [Dasatinib] (top concentration 1000 nM): the “selective drug sensitivity score” value stood at 1.7.

Regarding `N[C@@H]1CCCN(c2c(/C=C3\SC(=O)NC3=O)cccc2-c2ccccc2)C1` [AZD1208] (top concentration 10000 nM), the “selective drug sensitivity score” value is -3.3.

As for `CC(C)C[C@H](NC(=O)CNC(=O)c1cc(Cl)ccc1Cl)B(O)O` [Ixazomib] (top concentration 1000 nM), the “selective drug sensitivity score” value amounted to 5.96.

Consider `C=CC(=O)N1CCC[C@@H](n2nc(-c3ccc(Oc4ccccc4)cc3)c3c(N)ncnc32)C1` [Ibrutinib] (top concentration 1000 nM), for which the “selective drug sensitivity score” value came to 3.4.

Consider `Cn1cnc2c(F)c(Nc3ccc(Br)cc3F)c(C(=O)NOCCO)cc21` [Binimetinib] (top concentration 1000 nM), for which the “selective drug sensitivity score” value is -1.82.

`COc1cc(Nc2ncc(F)c(Nc3ccc4c(n3)N(COP(=O)(O)O)C(=O)C(C)(C)O4)n2)cc(OC)c1OC` [Fostamatinib] (top concentration 2500 nM): the “selective drug sensitivity score” value was 4.56.

Turning to `COc1cc2c(Oc3ccc(NC(=O)C4(C(=O)Nc5ccc(F)cc5)CC4)cc3F)ccnc2cc1OCCCN1CCOCC1` [Foretinib] (top concentration 1000 nM), the “selective drug sensitivity score” value came to 2.44.

With `Sc1ncnc2nc[nH]c12` [Mercaptopurine] (top concentration 10000 nM), the “selective drug sensitivity score” value stood at 17.1.

`COCCNCc1ccc(-c2cc3nccc(Oc4ccc(NC(=S)NC(=O)Cc5ccc(F)cc5)cc4F)c3s2)nc1` [Glesatinib] (top concentration 2500 nM): the “selective drug sensitivity score” value amounted to 2.34.

Regarding `Cn1nccc1Nc1nccc(-c2ccn([C@H](CO)c3ccc(Cl)c(F)c3)c(=O)c2)n1` [Ravoxertinib] (top concentration 10000 nM), the “selective drug sensitivity score” value was 2.4.

Turning to `CC1=NN(c2ccc(C(=O)O)cc2)C(=O)C1=Cc1ccc(-c2cc(C)c(C)cc2[N+](=O)[O-])o1` [C646] (top concentration 25000 nM), the “selective drug sensitivity score” value worked out at 1.74.

Consider `CC(C)c1cc(C(=O)N2Cc3ccc(CN4CCN(C)CC4)cc3C2)c(O)cc1O` [Onalespib] (top concentration 2500 nM), for which the “selective drug sensitivity score” value was determined as 5.42.

`CCN1C(=O)CNc2ncc(-c3ccc(-c4nc[nH]n4)nc3C)nc21` [CC-115] (top concentration 10000 nM): the “selective drug sensitivity score” value came to 1.34.

On to `COc1cc(N2CCC(N3CCN(C)CC3)CC2)ccc1Nc1ncc(Cl)c(Nc2ccccc2P(C)(C)=O)n1` [Brigatinib] (top concentration 1000 nM), for which the “selective drug sensitivity score” value was -1.74.

For `CN1CCN(c2nc(C3=C(c4c[nH]c5ccccc45)C(=O)NC3=O)c3ccccc3n2)CC1` [Sotrastaurin] (top concentration 10000 nM), the “selective drug sensitivity score” value was -0.4.

For `CCN(CC)Cc1ccc2cc(COC(=O)Nc3ccc(C(=O)NO)cc3)ccc2c1` [Givinostat] (top concentration 1000 nM), the “selective drug sensitivity score” value was found to be 11.1.

On to `CNC(=O)c1cc(Oc2ccc(NC(=O)Nc3ccc(Cl)c(C(F)(F)F)c3)cc2)ccn1` [Sorafenib] (top concentration 1000 nM), for which the “selective drug sensitivity score” value was found to be 0.5.

`COc1ccc(S(=O)(=O)Nc2cccnc2Nc2ccc(O)cc2)cc1` [ABT-751] (top concentration 10000 nM): the “selective drug sensitivity score” value turned out to be 12.2.

With `C[C@@H](Oc1ccc2[nH]nc(/C=C/c3cnn(CCO)c3)c2c1)c1c(Cl)cncc1Cl` (top concentration 1000 nM), the “selective drug sensitivity score” value turned out to be 0.56.

Another experiment has as its system P12-ICHIKAWA
The description is as above. The settings on record: 72 h.
As for `Cc1nc(Nc2ncc(C(=O)Nc3c(C)cccc3Cl)s2)cc(N2CCN(CCO)CC2)n1` [Dasatinib] (top concentration 1000 nM), the “selective drug sensitivity score” value is -1.7.

Turning to `N[C@@H]1CCCN(c2c(/C=C3\SC(=O)NC3=O)cccc2-c2ccccc2)C1` [AZD1208] (top concentration 10000 nM), the “selective drug sensitivity score” value is -4.

Take `CC(C)C[C@H](NC(=O)CNC(=O)c1cc(Cl)ccc1Cl)B(O)O` [Ixazomib] (top concentration 1000 nM): the “selective drug sensitivity score” value turned out to be 5.76.

For `C=CC(=O)N1CCC[C@@H](n2nc(-c3ccc(Oc4ccccc4)cc3)c3c(N)ncnc32)C1` [Ibrutinib] (top concentration 1000 nM), the “selective drug sensitivity score” value was 0.

Regarding `Cn1cnc2c(F)c(Nc3ccc(Br)cc3F)c(C(=O)NOCCO)cc21` [Binimetinib] (top concentration 1000 nM), the “selective drug sensitivity score” value is -0.42.

With `COc1cc(Nc2ncc(F)c(Nc3ccc4c(n3)N(COP(=O)(O)O)C(=O)C(C)(C)O4)n2)cc(OC)c1OC` [Fostamatinib] (top concentration 2500 nM), the “selective drug sensitivity score” value was -2.84.

As for `COc1cc2c(Oc3ccc(NC(=O)C4(C(=O)Nc5ccc(F)cc5)CC4)cc3F)ccnc2cc1OCCCN1CCOCC1` [Foretinib] (top concentration 1000 nM), the “selective drug sensitivity score” value was 1.34.

With `Sc1ncnc2nc[nH]c12` [Mercaptopurine] (top concentration 10000 nM), the “selective drug sensitivity score” value was found to be 9.6.

`COCCNCc1ccc(-c2cc3nccc(Oc4ccc(NC(=S)NC(=O)Cc5ccc(F)cc5)cc4F)c3s2)nc1` [Glesatinib] (top concentration 2500 nM): the “selective drug sensitivity score” value is -1.66.

Consider `Cn1nccc1Nc1nccc(-c2ccn([C@H](CO)c3ccc(Cl)c(F)c3)c(=O)c2)n1` [Ravoxertinib] (top concentration 10000 nM), for which the “selective drug sensitivity score” value amounted to 2.1.

`CC1=NN(c2ccc(C(=O)O)cc2)C(=O)C1=Cc1ccc(-c2cc(C)c(C)cc2[N+](=O)[O-])o1` [C646] (top concentration 25000 nM): the “selective drug sensitivity score” value was -2.06.

Take `CC(C)c1cc(C(=O)N2Cc3ccc(CN4CCN(C)CC4)cc3C2)c(O)cc1O` [Onalespib] (top concentration 2500 nM): the “selective drug sensitivity score” value was 2.22.

As to `CCN1C(=O)CNc2ncc(-c3ccc(-c4nc[nH]n4)nc3C)nc21` [CC-115] (top concentration 10000 nM), the “selective drug sensitivity score” value was 1.04.

Consider `COc1cc(N2CCC(N3CCN(C)CC3)CC2)ccc1Nc1ncc(Cl)c(Nc2ccccc2P(C)(C)=O)n1` [Brigatinib] (top concentration 1000 nM), for which the “selective drug sensitivity score” value was -3.34.

Take `CN1CCN(c2nc(C3=C(c4c[nH]c5ccccc45)C(=O)NC3=O)c3ccccc3n2)CC1` [Sotrastaurin] (top concentration 10000 nM): the “selective drug sensitivity score” value is -1.3.

`CCN(CC)Cc1ccc2cc(COC(=O)Nc3ccc(C(=O)NO)cc3)ccc2c1` [Givinostat] (top concentration 1000 nM): the “selective drug sensitivity score” value was 3.1.

On to `CNC(=O)c1cc(Oc2ccc(NC(=O)Nc3ccc(Cl)c(C(F)(F)F)c3)cc2)ccn1` [Sorafenib] (top concentration 1000 nM), for which the “selective drug sensitivity score” value came out at 0.

On to `COc1ccc(S(=O)(=O)Nc2cccnc2Nc2ccc(O)cc2)cc1` [ABT-751] (top concentration 10000 nM), for which the “selective drug sensitivity score” value was found to be 10.4.

Turning to `C[C@@H](Oc1ccc2[nH]nc(/C=C/c3cnn(CCO)c3)c2c1)c1c(Cl)cncc1Cl` (top concentration 1000 nM), the “selective drug sensitivity score” value is -2.64.

For the next experiment, the system named is PF-382. The description is as above. The settings on record: 72 h.
As to `Cc1nc(Nc2ncc(C(=O)Nc3c(C)cccc3Cl)s2)cc(N2CCN(CCO)CC2)n1` [Dasatinib] (top concentration 1000 nM), the “selective drug sensitivity score” value was 10.8.

In the case of `N[C@@H]1CCCN(c2c(/C=C3\SC(=O)NC3=O)cccc2-c2ccccc2)C1` [AZD1208] (top concentration 10000 nM), the “selective drug sensitivity score” value is -3.8.

With `CC(C)C[C@H](NC(=O)CNC(=O)c1cc(Cl)ccc1Cl)B(O)O` [Ixazomib] (top concentration 1000 nM), the “selective drug sensitivity score” value is 7.86.

In the case of `C=CC(=O)N1CCC[C@@H](n2nc(-c3ccc(Oc4ccccc4)cc3)c3c(N)ncnc32)C1` [Ibrutinib] (top concentration 1000 nM), the “selective drug sensitivity score” value stood at 0.

With `Cn1cnc2c(F)c(Nc3ccc(Br)cc3F)c(C(=O)NOCCO)cc21` [Binimetinib] (top concentration 1000 nM), the “selective drug sensitivity score” value was -1.82.

In the case of `COc1cc(Nc2ncc(F)c(Nc3ccc4c(n3)N(COP(=O)(O)O)C(=O)C(C)(C)O4)n2)cc(OC)c1OC` [Fostamatinib] (top concentration 2500 nM), the “selective drug sensitivity score” value was -1.14.

For `COc1cc2c(Oc3ccc(NC(=O)C4(C(=O)Nc5ccc(F)cc5)CC4)cc3F)ccnc2cc1OCCCN1CCOCC1` [Foretinib] (top concentration 1000 nM), the “selective drug sensitivity score” value was found to be 0.34.

Turning to `Sc1ncnc2nc[nH]c12` [Mercaptopurine] (top concentration 10000 nM), the “selective drug sensitivity score” value is 9.2.

In the case of `COCCNCc1ccc(-c2cc3nccc(Oc4ccc(NC(=S)NC(=O)Cc5ccc(F)cc5)cc4F)c3s2)nc1` [Glesatinib] (top concentration 2500 nM), the “selective drug sensitivity score” value is -0.56.
